The target of assay [1] is T1, nuclear factor-kappa B (NF-kB)-inducing kinase (NIK) (Homo sapiens, UniProt Q99558).
T1 construct: made in house; host or cells: baculovirus-infected insect cells
Nature of the assay: NIK enzyme inhibition assay (Transcreener ADP fluorescence polarization, NIK ADP-FP). The format is biochemical. A general note: Fluorescence polarisation rises when a labelled molecule tumbles more slowly, as on binding a larger partner.
Protocol: NIK Enzyme Inhibition Assay:
The ability of the nuclear factor-kappa B (NF-kB)-inducing kinase (NIK) to catalyze the hydrolysis of adenosine-5′-triphosphate (ATP) was monitored using the Transcreener ADP (adenosine-5′-diphosphate) assay (BellBrook Labs). […] Reactions were quenched by the addition of 20 mM 2,2′,2″,2′″-(ethane-1,2-diyldinitrilo)tetraacetic acid and 0.01% Brij 35. The tracer bound to the antibody was displaced by the ADP generated during the NIK reaction, which causes a decrease in fluorescence polarization that was measured by laser excitation at 633 nm with a Fluorescence Correlation Spectroscopy Plus reader (Evotec AG). Equilibrium dissociation constant (Ki) values for NIK inhibitors are calculated from plots of activity vs. inhibitor concentration using Morrison's quadratic equation that accounts for the potential of tight binding, and by also applying the conversion factor that accounted for competitive inhibition and the concentration of substrate used in the assay relative to its Michaelis constant (Km).

For assay [2], the system named is REL-A (p65) nuclear translocation in HeLa cells. Description: REL-A (p65) nuclear translocation assay in HeLa cells, TNF-α stimulated (classical NF-kB signaling), high content imaging. Type of assay: cell-based. The settings on record: Homo sapiens, HeLa, compound 4.5 h, then 10 ng/mL TNF-α for 30 minutes, read-out: REL-A HeLa Transloc Assay (IC50). In short, it runs like this:
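HeLa cells in medium with 10% fetal bovine serum were exposed to compounds (0.2% DMSO final) for 4.5 hours, then stimulated with 10 ng/mL TNF-α for 30 minutes. After fixation in 4% paraformaldehyde and permeabilization with 0.1% Triton X-100, cells were stained with 400 ng/mL anti-REL-A (p65) antibody, an Alexa488 secondary and DRAQ5. Opera imaging quantified the nuclear-to-cytoplasmic signal ratio to give IC50.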

Assay [3] deals with p52 (NF-kB2) nuclear translocation in HeLa cells. Description: p52 (NF-kB2) nuclear translocation assay in HeLa cells, anti-lymphotoxin beta receptor antibody stimulated (non-classical NF-kB signaling), high content imaging. The format is cell-based. The settings on record: Homo sapiens, 100 ng/mL anti-lymphotoxin beta receptor antibody for 5 hours, read-out: p52 HeLa Transloc Assay (IC50). In short, it runs like this:
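HeLa cells in 10% FBS medium were treated with compound (0.2% DMSO final) and stimulated with 100 ng/mL anti-lymphotoxin beta receptor antibody for 5 h. Fixed cells were immunostained for p52 and imaged with DRAQ5 nuclear stain. Translocation is the nuclear to cytoplasmic intensity ratio, […].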

Where only a bound is given, the exact number is not on record here.

This passage reports Ki and IC50 results from patent US20160185797A1, “ALKYNYL ALCOHOLS AND METHODS OF USE” (Genentech, Inc., priority 2013, published 2016).

T1 sequence (Q99558 whole entry): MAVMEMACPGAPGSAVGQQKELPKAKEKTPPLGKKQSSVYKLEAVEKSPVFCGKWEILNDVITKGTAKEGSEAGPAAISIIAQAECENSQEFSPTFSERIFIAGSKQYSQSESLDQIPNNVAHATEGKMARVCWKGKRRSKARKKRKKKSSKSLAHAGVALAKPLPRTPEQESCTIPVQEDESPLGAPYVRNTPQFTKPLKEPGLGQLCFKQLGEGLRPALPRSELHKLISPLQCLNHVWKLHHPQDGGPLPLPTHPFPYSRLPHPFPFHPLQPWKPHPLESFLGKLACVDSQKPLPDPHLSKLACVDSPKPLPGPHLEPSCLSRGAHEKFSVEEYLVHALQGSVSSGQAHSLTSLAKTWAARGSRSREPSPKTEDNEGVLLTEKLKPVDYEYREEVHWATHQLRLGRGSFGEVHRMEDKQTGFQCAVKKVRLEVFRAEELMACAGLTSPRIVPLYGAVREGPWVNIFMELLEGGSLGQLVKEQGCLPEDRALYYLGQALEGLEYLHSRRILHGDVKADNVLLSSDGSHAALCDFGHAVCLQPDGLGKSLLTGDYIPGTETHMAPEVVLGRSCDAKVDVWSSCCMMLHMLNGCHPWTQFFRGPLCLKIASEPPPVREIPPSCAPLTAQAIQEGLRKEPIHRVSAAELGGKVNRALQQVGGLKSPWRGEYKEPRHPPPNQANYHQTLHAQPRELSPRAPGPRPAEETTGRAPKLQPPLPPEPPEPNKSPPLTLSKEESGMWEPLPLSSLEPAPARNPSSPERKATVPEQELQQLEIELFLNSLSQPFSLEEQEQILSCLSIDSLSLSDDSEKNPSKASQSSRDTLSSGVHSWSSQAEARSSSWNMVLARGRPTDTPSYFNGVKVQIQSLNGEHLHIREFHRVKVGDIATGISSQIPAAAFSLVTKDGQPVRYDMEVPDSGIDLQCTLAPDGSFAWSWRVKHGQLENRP

A word on the Ki: it is a measure of affinity in units of concentration, obtained from inhibition or displacement. Lower therefore signals a stronger hold on the target. In general, IC50 refers to the midpoint of a concentration-inhibition curve. As for `CN1CC[C@@](O)(C#Cc2cc(-c3ccc(N)c(C(N)=O)n3)c(F)cc2F)C1=O` [Example 118, 3-amino-6-[2,4-difluoro-5-[2-[(3R)-3-hydroxy-1-methyl-2-oxo-pyrrolidin-3-yl]ethynyl]phenyl]pyridine-2-carboxamide], the Ki in assay [1] came out at 0.05 nM. In addition, the results for the half-inhibitory concentration (IC50) in assay [2] and in assay [3] were at least 2000 nM and 19 nM, respectively.
`CCNc1ccc(-c2ccc(C#N)c(C#C[C@]3(O)CCN(C)C3=O)c2)nc1C(N)=O` [Example 119, 6-[4-cyano-3-[2-[(3R)-3-hydroxy-1-methyl-2-oxo-pyrrolidin-3-yl]ethynyl]phenyl]-3-(ethylamino) pyridine-2-carboxamide] returned a Ki in assay [1] of 0.1 nM. Moreover, the IC50 in assay [2] was at least 2000 nM; in assay [3], 108 nM.
As for `CN1CC[C@@](O)(C#Cc2cccc(-c3nc(C(N)=O)c(NCc4ccon4)cc3F)c2)C1=O` [Example 120, 5-fluoro-6-[3-[2-[(3R)-3-hydroxy-1-methyl-2-oxo-pyrrolidin-3-yl]ethynyl]phenyl]-3-(isoxazol-3-ylmethylamino)pyridine-2-carboxamide], the inhibition constant Ki in assay [1] came out at 0.33 nM. In addition, the concentration for half-maximal inhibition (IC50) in assay [2] is at least 2000 nM; in assay [3] it was 26.6 nM.
For `CN1CC[C@@](O)(C#Cc2cccc(-c3cc(OC4COC4)cc(C(N)=O)n3)c2)C1=O` [Example 122, 6-[3-[2-[(3R)-3-hydroxy-1-methyl-2-oxo-pyrrolidin-3-yl]ethynyl]phenyl]-4-(oxetan-3-yloxy) pyridine-2-carboxamide], in that order: 0.81 nM, at least 2000 nM and 226 nM.
In the case of `Cc1cc(C(N)=O)nc(-c2cccc(C#C[C@]3(O)CCN(C)C3=O)c2)c1` [Example 123, 6-[3-[2-[(3R)-3-hydroxy-1-methyl-2-oxo-pyrrolidin-3-yl]ethynyl]phenyl]-4-methyl-pyridine-2-carboxamide], the inhibition constant Ki in assay [1] is 0.09 nM. For the same compound, the half-inhibitory concentration (IC50) was at least 2000 nM in assay [2] and 79.4 nM in assay [3].
On the same counts, the results for `CN1CC[C@@](O)(C#Cc2cccc(-c3cc(N)cc(C(N)=O)n3)c2)C1=O` [Example 124, 4-amino-6-[3-[2-[(3R)-3-hydroxy-1-methyl-2-oxo-pyrrolidin-3-yl]ethynyl]phenyl]pyridine-2-carboxamide] are 0.05 nM, at least 2000 nM and 300 nM.
For the compound `Cc1ccnn1-c1cc(C(N)=O)nc(-c2cccc(C#C[C@]3(O)CCN(C)C3=O)c2)c1` [Example 125, 6-[3-[2-[(3R)-3-hydroxy-1-methyl-2-oxo-pyrrolidin-3-yl]ethynyl]phenyl]-4-(5-methylpyrazol-1-yl) pyridine-2-carboxamide], the Ki in assay [1] was determined as 1.29 nM. For the same compound, the results for the IC50 in assay [2] and in assay [3] were at least 2000 nM and 84.2 nM, respectively.
For `Cc1ccc(-c2cc(C(N)=O)nc(-c3cccc(C#C[C@]4(O)CCN(C)C4=O)c3)c2)cn1` [Example 126, 6-[3-[2-[(3R)-3-hydroxy-1-methyl-2-oxo-pyrrolidin-3-yl]ethynyl]phenyl]-4-(6-methyl-3-pyridyl)pyridine-2-carboxamide], in that order: 0.05 nM, at least 2000 nM and 122 nM.
For `CN1CC[C@@](O)(C#Cc2cccc(-c3cc(-c4cnccn4)cc(C(N)=O)n3)c2)C1=O` [Example 127, 6-[3-[2-[(3R)-3-hydroxy-1-methyl-2-oxo-pyrrolidin-3-yl]ethynyl]phenyl]-4-pyrazin-2-yl-pyridine-2-carboxamide], in that order: 0.08 nM, at least 2000 nM and 183 nM.
In assay [1], `COCCNc1ccc(-c2cccc(C#C[C@]3(O)CCN(C)C3=O)c2)nc1C(N)=O` [Example 128, 6-[3-[2-[(3R)-3-hydroxy-1-methyl-2-oxo-pyrrolidin-3-yl]ethynyl]phenyl]-3-(2-methoxyethylamino) pyridine-2-carboxamide] displayed an inhibition constant (Ki) of 0.05 nM. The figures for the concentration for half-maximal inhibition (IC50) in assay [2] and in assay [3] were at least 2000 nM and 27.2 nM, respectively.
On the same counts, the results for `CN1CC[C@@](O)(C#Cc2cccc(-c3cc(-c4ncccn4)cc(C(N)=O)n3)c2)C1=O` [Example 129, 6-[3-[2-[(3R)-3-hydroxy-1-methyl-2-oxo-pyrrolidin-3-yl]ethynyl]phenyl]-4-pyrimidin-2-yl-pyridine-2-carboxamide] are 0.3 nM, at least 2000 nM and 155 nM.
On the same counts, the results for `Cc1nnc([C@](C)(O)C#Cc2cccc(-c3nc(C(N)=O)c(N)cc3F)c2)o1` [Example 130, 3-amino-5-fluoro-6-[3-[(3R)-3-hydroxy-3-(5-methyl-1,3,4-oxadiazol-2-yl)but-1-ynyl]phenyl]pyridine-2-carboxamide] are 9.05 nM, at least 2000 nM and at least 2000 nM.
As to `CN1CCC[C@@](O)(C#Cc2cccc(-c3nc(C(N)=O)c(N)cc3F)c2)C1=O` [Example 131, 3-amino-5-fluoro-6-[3-[2-[(3R)-3-hydroxy-1-methyl-2-oxo-3-piperidyl]ethynyl]phenyl]pyridine-2-carboxamide], in assay [1], the Ki came to 1.06 nM. Besides, the IC50 is at least 2000 nM in assay [2] and 142 nM in assay [3].
For the compound `Cc1nc([C@](C)(O)C#Cc2cccc(-c3nc(C(N)=O)c(N)cc3F)c2)no1` [Example 132, 3-amino-5-fluoro-6-[3-[(3R)-3-hydroxy-3-(5-methyl-1,2,4-oxadiazol-3-yl)but-1-ynyl]phenyl]pyridine-2-carboxamide], in assay [1], the Ki was 8.75 nM. The IC50 in assay [2] and in assay [3] was at least 2000 nM throughout.
`Cc1ccc(-c2cccc(C#C[C@]3(O)CCN(C)C3=O)c2)nc1C(N)=O` [Example 133, 6-[3-[2-[(3R)-3-hydroxy-1-methyl-2-oxo-pyrrolidin-3-yl]ethynyl]phenyl]-3-methyl-pyridine-2-carboxamide]: the affinity in assay [1], expressed as Ki, was 0.18 nM. Besides, the IC50 in assay [2] was at least 2000 nM; in assay [3], 160 nM.
With `COCCNc1ncc(-c2cc(C#C[C@]3(O)CCN(C)C3=O)ccc2F)nc1C(N)=O` [Example 134, 6-[2-fluoro-5-[2-[(3R)-3-hydroxy-1-methyl-2-oxo-pyrrolidin-3-yl]ethynyl]phenyl]-3-(2-methoxyethylamino) pyrazine-2-carboxamide], the Ki in assay [1] worked out at 0.09 nM. In addition, the results for the IC50 in assay [2] and in assay [3] were at least 2000 nM and 45.4 nM, respectively.
Compound `CN1CC[C@@](O)(C#Cc2cccc(-c3cc(C(F)(F)F)cc(C(N)=O)n3)c2)C1=O` [Example 135, 6-[3-[2-[(3R)-3-hydroxy-1-methyl-2-oxo-pyrrolidin-3-yl]ethynyl]phenyl]-4-(trifluoromethyl) pyridine-2-carboxamide] showed an inhibition constant Ki in assay [1] of 0.53 nM. The IC50 was at least 2000 nM in assay [2] and 147 nM in assay [3].
`COc1cc(-c2cccc(C#C[C@]3(O)CCN(C)C3=O)c2)nc(C(N)=O)n1` [Example 136, 4-[3-[2-[(3R)-3-hydroxy-1-methyl-2-oxo-pyrrolidin-3-yl]ethynyl]phenyl]-6-methoxy-pyrimidine-2-carboxamide]: the Ki in assay [1] worked out at 0.5 nM. In addition, the IC50 in assay [2] is at least 2000 nM; in assay [3], 152 nM.
On the same counts, the results for `Cc1nnc([C@](C)(O)C#Cc2cccc(-c3nc(C(N)=O)cc(-c4ccnn4C)n3)c2)o1` [Example 137, 2-[3-[(3R)-3-hydroxy-3-(5-methyl-1,3,4-oxadiazol-2-yl)but-1-ynyl]phenyl]-6-(2-methylpyrazol-3-yl)pyrimidine-4-carboxamide] are 3.68 nM, at least 20000 nM and 268 nM.
For `Cc1nccn1-c1cc(C(N)=O)nc(-c2cccc(C#C[C@]3(O)CCN(C)C3=O)c2)n1` [Example 141, 2-[3-[2-[(3R)-3-hydroxy-1-methyl-2-oxo-pyrrolidin-3-yl]ethynyl]phenyl]-6-(2-methylimidazol-1-yl) pyrimidine-4-carboxamide], in that order: 0.37 nM, at least 20000 nM and 328 nM.
On the same counts, the results for `CN1CC[C@@](O)(C#Cc2cccc(-c3ncc(N[C@H]4CCOC4)c(C(N)=O)n3)c2)C1=O` [Example 142, 2-[3-[2-[(3R)-3-hydroxy-1-methyl-2-oxo-pyrrolidin-3-yl]ethynyl]phenyl]-5-[[(3S)-tetrahydrofuran-3-yl]amino] pyrimidine-4-carboxamide] are 0.24 nM, at least 20000 nM and 14.8 nM.
Regarding `CN1CC[C@@](O)(C#Cc2cccc(-c3ncc(N[C@@H]4CCOC4)c(C(N)=O)n3)c2)C1=O` [Example 143, 2-[3-[2-[(3R)-3-hydroxy-1-methyl-2-oxo-pyrrolidin-3-yl]ethynyl]phenyl]-5-[[(3R)-tetrahydrofuran-3-yl]amino] pyrimidine-4-carboxamide], the affinity in assay [1], expressed as Ki, was 0.05 nM. Besides, the results for the IC50 in assay [2] and in assay [3] were at least 20000 nM and 8.12 nM, respectively.
On the same counts, the results for `CN1CC[C@@](O)(C#Cc2cccc(-c3cc(-c4ccnn4C)cc(C(N)=O)n3)c2)C1=O` [Example 144, 6-[3-[2-[(3R)-3-hydroxy-1-methyl-2-oxo-pyrrolidin-3-yl]ethynyl]phenyl]-4-(2-methylpyrazol-3-yl) pyridine-2-carboxamide] are 0.69 nM, at least 2000 nM and 199 nM.
